Measurements from patent US20240215576A1, “HEAT-RESISTANT MOLD GROWTH INHIBITOR, FOOD AND DRINK IN WHICH GROWTH OF HEAT-RESISTANT MOLD IS INHIBITED, AND METHOD FOR INHIBITING GROWTH OF HEAT-RESISTANT MOLD” (NIPPON SHINYAKU CO., LTD., priority 2021, published 2024).
Counter-ions that a name gives are not always drawn. Each block holds one compound with its values, some of them ahead of it.

Assays:
N. primulina [1] = experiment: Growth of N. primulina in Trypticase soy broth medium stored 7 days at 25° C.; type: cell-based, Neosartorya primulina; settings: for Growth of N. primulina after lapse of 7 days under storage at 25° C.: concentration 1000 ppm; for growth inhibition effect against N. primulina: 1000 ppm
Experimental: (§1) Diethyl fumarate and 2-decenoic acid were prepared for use in Examples. In addition, the following components reported to have a growth inhibition effect against normal mold (non-heat-resistant mold) were prepared for use in Comparative Examples: palmitic acid, trans-anethole, benzyl alcohol, cinnamic acid, hinokitiol, salicylic acid, hexanal, 2-mercapto benzothiazole, p-cymene, 1,8-cineole, α-pinene, estragole, 4-hydroxy-3,5-dimethoxybenzoic acid, and linalyl acetate. Then, each component was added to a medium of Trypticase soy broth such that the concentration of each component was as shown in Table 3 below.
(§2) These media were stored for 7 days under an atmosphere at 25° C. […] In Table, those showing the growth are represented by “+,” and those showing no growth are represented by “−.”

B. fulva [2] = experiment: Growth of B. fulva in Trypticase soy broth medium stored 7 days at 25° C.; type: cell-based, Byssochlamys fulva; settings: for Growth of B. fulva after lapse of 7 days under storage at 25° C.: concentration 1000 ppm; for growth inhibition effect against B. fulva: 1000 ppm
Experimental: as §1, §2

N. primulina [3] = experiment: Growth of N. primulina in tomato juice stored at 25° C.; type: cell-based, Neosartorya primulina; design: key to Growth of N. primulina, 5 days / Growth of N. primulina, 7 days / Growth of N. primulina, 10 days / Growth of N. primulina, 14 days: those showing the growth of N. primulina are represented by “+,”; those showing no growth are represented by “−.”; settings: for growth inhibition effect against N. primulina after the lapse of 14 days: high concentration of the active component (270 ppm); for Growth of N. primulina, 3 days / Growth of N. primulina, 5 days / Growth of N. primulina, 7 days / Growth of N. primulina, 10 days / Growth of N. primulina, 14 days: storage at 25° C.
Experimental: Diethyl fumarate or 2-decenoic acid was added to tomato juice (100% pure, salt-free) such that the concentration of the component was as shown in Table 2 below. […] In Table 2, those showing the growth of N. primulina are represented by “+,” and those showing no growth are represented by “−.”

B. fulva [4] = experiment: Growth of B. fulva in tomato juice stored at 25° C.; type: cell-based, Byssochlamys fulva; settings: for generation of B. fulva after the lapse of 14 days: 25° C., high concentration of the active component (270 ppm); for Growth of B. fulva, 3 days / Growth of B. fulva, 5 days / Growth of B. fulva, 7 days / Growth of B. fulva, 10 days / Growth of B. fulva, 14 days: storage at 25° C.
Experimental: Diethyl fumarate or 2-decenoic acid was added to tomato juice (100% pure, salt-free) such that the concentration of the component was as shown in Table 1 below. […] In Table 1, those showing the growth of B. fulva are represented by “+,” and those showing no growth are represented by “−.”

Compound: C=CC(C)(CCC=C(C)C)OC(C)=O (stereo not drawn) [Linalyl acetate]
Growth of N. primulina after lapse of 7 days under storage at 25° C. (N. primulina [1]): + | Growth of B. fulva after lapse of 7 days under storage at 25° C. (B. fulva [2]): +

Compound: C/C=C/c1ccc(OC)cc1 [Trans-anethole]
Growth of N. primulina after lapse of 7 days under storage at 25° C. (N. primulina [1]): + | Growth of B. fulva after lapse of 7 days under storage at 25° C. (B. fulva [2]): +

Compound: Cc1ccc(C(C)C)cc1 [p-Cymene]
Growth of N. primulina after lapse of 7 days under storage at 25° C. (N. primulina [1]): + | Growth of B. fulva after lapse of 7 days under storage at 25° C. (B. fulva [2]): +

Compound: C=CCc1ccc(OC)cc1 [Estragole]
Growth of N. primulina after lapse of 7 days under storage at 25° C. (N. primulina [1]): + | Growth of B. fulva after lapse of 7 days under storage at 25° C. (B. fulva [2]): +

Compound: COc1cc(C(=O)O)cc(OC)c1O [4-Hydroxy-3,5-dimethoxybenzoic acid]
Growth of N. primulina after lapse of 7 days under storage at 25° C. (N. primulina [1]): + | Growth of B. fulva after lapse of 7 days under storage at 25° C. (B. fulva [2]): +

growth inhibition effect against N. primulina (N. primulina [1]): exhibit the growth inhibition effect | growth inhibition effect against B. fulva (B. fulva [2]): exhibit the growth inhibition effect
Compound: CCCCCCC/C=C/C(=O)O [2-Decenoic acid, (E)-dec-2-enoic acid]
Growth of N. primulina after lapse of 7 days under storage at 25° C. (N. primulina [1]): − | growth inhibition effect against N. primulina after the lapse of 14 days (N. primulina [3]; 25° C.): the effect is maintained | Growth of N. primulina, 3 days (N. primulina [3]; 70 ppm): − | Growth of N. primulina, 5 days (N. primulina [3]; 70 ppm): + | Growth of N. primulina, 7 days (N. primulina [3]; 70 ppm): + | Growth of N. primulina, 10 days (N. primulina [3]; 70 ppm, 10 days): + | Growth of N. primulina, 14 days (N. primulina [3]; 70 ppm): + | Growth of N. primulina, 3 days (N. primulina [3]; 270 ppm): − | Growth of N. primulina, 5 days (N. primulina [3]; 270 ppm): − | Growth of N. primulina, 7 days (N. primulina [3]; 270 ppm): − | Growth of N. primulina, 10 days (N. primulina [3]; 270 ppm, 10 days): − | Growth of N. primulina, 14 days (N. primulina [3]; 270 ppm): − | Growth of B. fulva after lapse of 7 days under storage at 25° C. (B. fulva [2]): − | generation of B. fulva after the lapse of 14 days (B. fulva [4]): no generation | Growth of B. fulva, 3 days (B. fulva [4]; 70 ppm): − | Growth of B. fulva, 5 days (B. fulva [4]; 70 ppm): − | Growth of B. fulva, 7 days (B. fulva [4]; 70 ppm): − | Growth of B. fulva, 10 days (B. fulva [4]; 70 ppm): + | Growth of B. fulva, 14 days (B. fulva [4]; 70 ppm): + | Growth of B. fulva, 3 days (B. fulva [4]; 270 ppm): − | Growth of B. fulva, 5 days (B. fulva [4]; 270 ppm): − | Growth of B. fulva, 7 days (B. fulva [4]; 270 ppm): − | Growth of B. fulva, 10 days (B. fulva [4]; 270 ppm): − | Growth of B. fulva, 14 days (B. fulva [4]; 270 ppm): −

Growth of N. primulina after lapse of 7 days under storage at 25° C. (N. primulina [1]): + | Growth of B. fulva after lapse of 7 days under storage at 25° C. (B. fulva [2]): +
Compound: CC12CCC(CC1)C(C)(C)O2 [1,8-Cineole]

Compound: O=C(O)C=Cc1ccccc1 [Cinnamic acid]
Growth of N. primulina after lapse of 7 days under storage at 25° C. (N. primulina [1]): + | Growth of B. fulva after lapse of 7 days under storage at 25° C. (B. fulva [2]): +

Compound: Sc1nc2ccccc2s1 [2-Mercapto benzothiazole]
Growth of N. primulina after lapse of 7 days under storage at 25° C. (N. primulina [1]): + | Growth of B. fulva after lapse of 7 days under storage at 25° C. (B. fulva [2]): +

growth inhibition effect against N. primulina (N. primulina [1]): exhibit the growth inhibition effect | growth inhibition effect against B. fulva (B. fulva [2]): exhibit the growth inhibition effect
Compound: CCOC(=O)/C=C/C(=O)OCC [Diethyl fumarate, diethyl (E)-but-2-enedioate]
Growth of N. primulina after lapse of 7 days under storage at 25° C. (N. primulina [1]): − | generation of N. primulina after the lapse of 10 days (N. primulina [3]; 25° C., 10 days): no generation | growth inhibition effect against N. primulina after the lapse of 14 days (N. primulina [3]; 25° C.): the effect is maintained | Growth of N. primulina, 3 days (N. primulina [3]; 70 ppm): − | Growth of N. primulina, 5 days (N. primulina [3]; 70 ppm): − | Growth of N. primulina, 7 days (N. primulina [3]; 70 ppm): − | Growth of N. primulina, 10 days (N. primulina [3]; 70 ppm, 10 days): − | Growth of N. primulina, 14 days (N. primulina [3]; 70 ppm): + | Growth of N. primulina, 3 days (N. primulina [3]; 270 ppm): − | Growth of N. primulina, 5 days (N. primulina [3]; 270 ppm): − | Growth of N. primulina, 7 days (N. primulina [3]; 270 ppm): − | Growth of N. primulina, 10 days (N. primulina [3]; 270 ppm, 10 days): − | Growth of N. primulina, 14 days (N. primulina [3]; 270 ppm): − | Growth of B. fulva after lapse of 7 days under storage at 25° C. (B. fulva [2]): − | generation of B. fulva after the lapse of 14 days (B. fulva [4]): no generation | Growth of B. fulva, 3 days (B. fulva [4]; 70 ppm): − | Growth of B. fulva, 5 days (B. fulva [4]; 70 ppm): − | Growth of B. fulva, 7 days (B. fulva [4]; 70 ppm): − | Growth of B. fulva, 10 days (B. fulva [4]; 70 ppm): + | Growth of B. fulva, 14 days (B. fulva [4]; 70 ppm): + | Growth of B. fulva, 3 days (B. fulva [4]; 270 ppm): − | Growth of B. fulva, 5 days (B. fulva [4]; 270 ppm): − | Growth of B. fulva, 7 days (B. fulva [4]; 270 ppm): − | Growth of B. fulva, 10 days (B. fulva [4]; 270 ppm): − | Growth of B. fulva, 14 days (B. fulva [4]; 270 ppm): −

Compound: CC(C)c1cccc(=O)c(O)c1 [Hinokitiol]
Growth of N. primulina after lapse of 7 days under storage at 25° C. (N. primulina [1]): + | Growth of B. fulva after lapse of 7 days under storage at 25° C. (B. fulva [2]): +

Compound: CCCCCCCCCCCCCCCC(=O)O [Palmitic acid]
Growth of N. primulina after lapse of 7 days under storage at 25° C. (N. primulina [1]): + | Growth of B. fulva after lapse of 7 days under storage at 25° C. (B. fulva [2]): +

Compound: CC1=CCC2CC1C2(C)C (stereo not drawn) [α-Pinene]
Growth of N. primulina after lapse of 7 days under storage at 25° C. (N. primulina [1]): + | Growth of B. fulva after lapse of 7 days under storage at 25° C. (B. fulva [2]): +

Compound: O=C(O)c1ccccc1O [Salicylic acid]
Growth of N. primulina after lapse of 7 days under storage at 25° C. (N. primulina [1]): + | Growth of B. fulva after lapse of 7 days under storage at 25° C. (B. fulva [2]): +

Compound: OCc1ccccc1 [Benzyl alcohol]
Growth of N. primulina after lapse of 7 days under storage at 25° C. (N. primulina [1]): + | Growth of B. fulva after lapse of 7 days under storage at 25° C. (B. fulva [2]): +

Compound: CCCCCC=O [Hexanal]
Growth of N. primulina after lapse of 7 days under storage at 25° C. (N. primulina [1]): + | Growth of B. fulva after lapse of 7 days under storage at 25° C. (B. fulva [2]): +
